# Molecular target: T1, HEK cells stably transfected with tetracycline inducible hNR1 and hNR2A (Homo sapiens, UniProt Q05586+Q12879)
# T1 construct: expressed in transfected cells; host or cells: HEK cells, stably transfected, tetracycline/doxycycline inducible
# Assay: Assay 1: Cell-Based Assay, cytosolic calcium response to positive allosteric modulators (with 30 μM glycine and 300 nM L-glutamate, EC30)
# Settings: for EC50: cytosolic calcium response, with 30 μM glycine and 300 nM L-glutamate (EC30), — = no plateau was reached; for Max %: responses scaled relative to 100 μM L-glutamate maximal response (100%) and 0 μM L-glutamate (0%)
# How it was run: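 Cells induced 24 h with 7.5 μg mL^−1 doxycycline plus 500 μM (+)-ketamine, loaded 60 min at 37 °C with calcium dye in Mg-free HBSS (1.8 mM Ca, probenecid, 10 μM (+)-ketamine, pH 7.15). Peak RFU over 5 min after compound addition, scaled to 100 μM L-glutamate (100%) and 0 μM (0%); four-parameter Hill fit for EC50, max % if no plateau.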
# T1 sequence (Q12879 23-1464, other chains not shown): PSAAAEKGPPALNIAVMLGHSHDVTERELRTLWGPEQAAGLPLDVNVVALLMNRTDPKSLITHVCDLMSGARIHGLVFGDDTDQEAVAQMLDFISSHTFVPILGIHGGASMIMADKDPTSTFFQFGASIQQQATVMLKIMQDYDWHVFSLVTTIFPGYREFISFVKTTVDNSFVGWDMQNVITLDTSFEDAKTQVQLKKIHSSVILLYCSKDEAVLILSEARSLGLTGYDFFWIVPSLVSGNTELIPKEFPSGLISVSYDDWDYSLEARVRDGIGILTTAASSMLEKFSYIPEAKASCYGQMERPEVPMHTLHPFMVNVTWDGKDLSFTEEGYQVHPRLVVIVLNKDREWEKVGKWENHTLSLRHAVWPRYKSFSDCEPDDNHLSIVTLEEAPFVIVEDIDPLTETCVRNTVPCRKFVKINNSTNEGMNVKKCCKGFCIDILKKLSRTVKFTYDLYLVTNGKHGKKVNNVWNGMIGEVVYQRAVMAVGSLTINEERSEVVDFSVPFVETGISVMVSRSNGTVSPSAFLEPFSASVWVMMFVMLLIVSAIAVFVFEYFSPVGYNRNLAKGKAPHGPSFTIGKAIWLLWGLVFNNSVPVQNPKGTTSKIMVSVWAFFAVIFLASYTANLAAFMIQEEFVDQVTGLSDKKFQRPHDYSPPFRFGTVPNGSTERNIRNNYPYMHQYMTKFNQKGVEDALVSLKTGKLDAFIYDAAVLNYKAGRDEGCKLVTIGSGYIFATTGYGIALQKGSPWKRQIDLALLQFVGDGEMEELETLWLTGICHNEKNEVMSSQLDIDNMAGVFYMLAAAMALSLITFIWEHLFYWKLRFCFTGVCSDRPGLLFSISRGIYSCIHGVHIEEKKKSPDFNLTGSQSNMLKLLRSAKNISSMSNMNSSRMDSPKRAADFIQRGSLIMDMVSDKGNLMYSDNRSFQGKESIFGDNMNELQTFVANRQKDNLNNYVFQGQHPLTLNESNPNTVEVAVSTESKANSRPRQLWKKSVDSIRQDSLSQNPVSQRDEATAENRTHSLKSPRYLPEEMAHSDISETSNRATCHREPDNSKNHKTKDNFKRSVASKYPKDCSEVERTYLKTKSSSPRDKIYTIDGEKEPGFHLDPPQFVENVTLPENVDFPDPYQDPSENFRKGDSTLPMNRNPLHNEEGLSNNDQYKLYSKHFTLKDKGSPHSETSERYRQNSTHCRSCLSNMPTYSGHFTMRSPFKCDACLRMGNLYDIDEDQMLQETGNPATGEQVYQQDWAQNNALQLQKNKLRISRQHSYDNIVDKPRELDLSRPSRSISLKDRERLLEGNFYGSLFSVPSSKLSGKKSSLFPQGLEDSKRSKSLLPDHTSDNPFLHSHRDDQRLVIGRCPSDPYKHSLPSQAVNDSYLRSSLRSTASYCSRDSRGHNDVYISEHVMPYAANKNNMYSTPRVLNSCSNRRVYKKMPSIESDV
EC50 (Table 2) [µM],Max % (Table 2) [%],EC50 (Table 3) [µM],SMILES
–,–,83,"COc1sc2nc(Cn3nc(Cl)cc3C(F)(F)F)cc(=O)n2c1Cl [compound 218, 3-chloro-7-[[3-chloro-5-(trifluoromethyl)pyrazol-1-yl]methyl]-2-methoxy-thiazolo[3,2-a]pyrimidin-5-one]"
–,–,36.6,"Cc1cc(C(F)(F)F)n(Cc2cc(=O)n3c(C(=O)NCC(F)(F)F)c(C)sc3n2)n1 [compound 67, 2-methyl-7-[[3-methyl-5-(trifluoromethyl)pyrazol-1-yl]methyl]-5-oxo-N-(2,2,2-trifluoroethyl)thiazolo[3,2-a]pyrimidine-3-carboxamide]"
–,–,0.635,"CNC(=O)c1c(C(F)(F)F)sc2nc(Cn3nc(C(F)(F)F)cc3C3CC3)cc(=O)n12 [compound 53, 7-[[5-cyclopropyl-3-(trifluoromethyl)pyrazol-1-yl]methyl]-N-methyl-5-oxo-2-(trifluoromethyl)thiazolo[3,2-a]pyrimidine-3-carboxamide]"
–,–,0.325,"CC(=O)c1c(C)sc2nc(Cn3nc(C(F)(F)F)cc3Cl)cc(=O)n12 [compound 119, 3-acetyl-7-[[5-chloro-3-(trifluoromethyl)pyrazol-1-yl]methyl]-2-methyl-thiazolo[3,2-a]pyrimidin-5-one]"
–,–,0.157,N#CC1CC1c1c(Cl)sc2nc(Cn3nc(C(F)(F)F)cc3Cl)cc(=O)n12 (stereo not drawn) [compound 267]
–,–,10.5,"CSc1c(C(F)(F)F)sc2nc(Cn3nc(C(F)(F)F)cc3Cl)cc(=O)n12 [compound 219, 7-[[5-chloro-3-(trifluoromethyl)pyrazol-1-yl]methyl]-3-methylsulfanyl-2-(trifluoromethyl)thiazolo[3,2-a]pyrimidin-5-one]"
–,–,1.49,"Cc1sc2nc(Cn3nc(Cl)cc3C(F)(F)F)cc(=O)n2c1C(F)(F)F [compound 161, 7-[[3-chloro-5-(trifluoromethyl)pyrazol-1-yl]methyl]-2-methyl-3-(trifluoromethyl)thiazolo[3,2-a]pyrimidin-5-one]"
–,–,5.9,"CCNC(=O)c1c(C)sc2nc(CN(C)c3ccc(Cl)cn3)cc(=O)n12 [compound 124, 7-[[(5-chloro-2-pyridyl)-methyl-amino]methyl]-N-ethyl-2-methyl-5-oxo-thiazolo[3,2-a]pyrimidine-3-carboxamide]"
–,–,4.84,"CCNC(=O)c1c(C)sc2nc(Cn3nc(C(F)(F)F)cc3CC(C)C)cc(=O)n12 [compound 265, N-ethyl-7-[[5-isobutyl-3-(trifluoromethyl)pyrazol-1-yl]methyl]-2-methyl-5-oxo-thiazolo[3,2-a]pyrimidine-3-carboxamide]"
–,–,9.14,"Cc1sc2nc(Cn3nc(Cl)cc3C(F)(F)F)cc(=O)n2c1-c1cncnc1 [compound 122, 7-[[3-chloro-5-(trifluoromethyl)pyrazol-1-yl]methyl]-2-methyl-3-pyrimidin-5-yl-thiazolo[3,2-a]pyrimidin-5-one]"
–,–,0.366,"Cc1sc2nc(Cn3nc(C(F)(F)F)cc3Cl)cc(=O)n2c1C(=O)C1CC1 [compound 224, 7-[[5-chloro-3-(trifluoromethyl)pyrazol-1-yl]methyl]-3-(cyclopropanecarbonyl)-2-methyl-thiazolo[3,2-a]pyrimidin-5-one]"
–,–,0.066,"CCc1sc2nc(Cn3nc(C(F)(F)F)cc3Cl)cc(=O)n2c1C1CC1C#N (stereo not drawn) [compound 213, 2-[7-[[5-chloro-3-(trifluoromethyl)pyrazol-1-yl]methyl]-2-ethyl-5-oxo-thiazolo[3,2-a]pyrimidin-3-yl]cyclopropanecarbonitrile]"
–,–,1.76,"CCNC(=O)c1c(C)sc2nc(Cn3nc(Cl)cc3C(F)(F)F)cc(=O)n12 [compound 29, 7-[[3-chloro-5-(trifluoromethyl)pyrazol-1-yl]methyl]-N-ethyl-2-methyl-5-oxo-thiazolo[3,2-a]pyrimidine-3-carboxamide]"
15.2,–,–,"Cc1sc2nc(Cc3cccc(C(F)(F)F)c3F)cc(=O)n2c1C(=O)NCC#N [Example 25.2, N-(cyanomethyl)-7-(2-fluoro-3-(trifluoromethyl)benzyl)-2-methyl-5-oxo-5H-thiazolo[3,2-a]pyrimidine-3-carboxamide]"
–,–,2.96,"CNC(=O)Cc1c(C(F)(F)F)sc2nc(Cn3nc(C(F)(F)F)cc3C3CC3)cc(=O)n12 [compound 78, 2-[7-[[5-cyclopropyl-3-(trifluoromethyl)pyrazol-1-yl]methyl]-5-oxo-2-(trifluoromethyl)thiazolo[3,2-a]pyrimidin-3-yl]-N-methyl-acetamide]"

# The next lines start with the compound.
SMILES,EC50 (Table 2) [µM],Max % (Table 2) [%],EC50 (Table 3) [µM]
"Cc1sc2nc(Cn3nc(C(F)(F)F)cc3C3CC3)cc(=O)n2c1C#N [Example 17.2, 7-((5-cyclopropyl-3-(trifluoromethyl)-1H-pyrazol-1-yl)methyl)-2-methyl-5-oxo-5H-thiazolo[3,2-a]pyrimidine-3-carbonitrile]",2,119,–
"CCN(Cc1cc(=O)n2c3c(sc2n1)CCC3CCO)c1ccc(F)cc1 (stereo not drawn) [Example 8.14, 6-[(N-ethyl-4-fluoro-anilino)methyl]-1-(2-hydroxyethyl)-2,3-dihydro-1H-cyclopenta[3,4]thiazolo[1,4-a]pyrimidin-8-one]",1.1,154,–
"CCN(Cc1cc(=O)n2c(CCC(=O)N(C)C)c(C)sc2n1)c1ccc(F)cc1 [Example 13.8, 3-[7-[(N-ethyl-4-fluoro-anilino)methyl]-2-methyl-5-oxo-thiazolo[3,2-a]pyrimidin-3-yl]-N,N-dimethyl-propanamide]",–,61.2,–
"Cc1sc2nc(Cn3nc(C(F)(F)F)cc3C3CC3)cc(=O)n2c1-c1cncnc1 [Example 15.29, 7-((5-cyclopropyl-3-(trifluoromethyl)-1H-pyrazol-1-yl)methyl)-2-methyl-3-(pyrimidin-5-yl)-5H-thiazolo[3,2-a]pyrimidin-5-one]",7,135,–
"CCNC(=O)c1c(C)sc2nc(Cc3cc(C#N)ccc3F)cc(=O)n12 [Example 21.31, 7-(5-cyano-2-fluorobenzyl)-N-ethyl-2-methyl-5-oxo-5H-thiazolo[3,2-a]pyrimidine-3-carboxamide]",–,88.8,–
"CCN(Cc1cc(=O)n2c(C(F)CCO)c(C)sc2n1)c1ccc(F)cc1 (stereo not drawn) [Example 12.2, 7-[(N-ethyl-4-fluoro-anilino)methyl]-3-(1-fluoro-3-hydroxy-propyl)-2-methyl-thiazolo[3,2-a]pyrimidin-5-one]",0.27,192,–
"CCN(Cc1cc(=O)n2c3c(sc2n1)CCC3)c1ccc(F)cc1 [Example 8.1, 6-[(N-ethyl-4-fluoro-anilino)methyl]-2,3-dihydro-1H-cyclopenta[3,4]thiazolo[1,4-a]pyrimidin-8-one]",5.2,146,–
"CCN(Cc1cc(=O)n2c3c(sc2n1)CCC3CC#N)c1ccc(F)cc1 (stereo not drawn) [Example 8.13, 2-[6-[(N-ethyl-4-fluoro-anilino)methyl]-8-oxo-2,3-dihydro-1H-cyclopenta[3,4]thiazolo[1,4-a]pyrimidin-1-yl]acetonitrile]",2.2,162,–
"CCN(Cc1cc(=O)n2c(C)c(C)sc2n1)c1ccc(F)cc1 [Example 5.23, 7-[(N-ethyl-4-fluoro-anilino)methyl]-2,3-dimethyl-thiazolo[3,2-a]pyrimidin-5-one]",2.6,135,–
"CNC(=O)c1c(C)sc2nc(Cc3cccc(C(F)(F)F)c3F)c(F)c(=O)n12 [Example 21.29, 6-fluoro-7-(2-fluoro-3-(trifluoromethyl)benzyl)-N,2-dimethyl-5-oxo-5H-thiazolo[3,2-a]pyrimidine-3-carboxamide]",4.7,98.2,–
"Cc1sc2nc(COc3ccc(F)cc3)cc(=O)n2c1-c1ncco1 [Example 4.11, 7-((4-fluorophenoxy)methyl)-2-methyl-3-(oxazol-2-yl)-5H-thiazolo[3,2-a]pyrimidin-5-one]",4.8,40.8,–
"Cc1sc2nc(COc3ccc(F)cc3)cc(=O)n2c1[C@@H]1C[C@H]1C#N (single isomer, unassigned) [Example 4.21, trans-2-[7-(4-Fluorophenoxymethyl)-2-methyl-5-oxo-5H-[1,3]thiazolo[3,2-a]pyrimidin-3-yl]cyclopropane-1-carbonitrile]",16.3,47.4,–
"CCN(Cc1cc(=O)n2c(-c3nccs3)c(C)sc2n1)c1ccc(F)cc1 [Example 5.8, 7-((ethyl(4-fluorophenyl)amino)methyl)-2-methyl-3-(thiazol-2-yl)-5H-thiazolo[3,2-a]pyrimidin-5-one]",0.669,156,–
"CCN(Cc1cc(=O)n2c(C(O)CCO)c(C)sc2n1)c1ccc(F)cc1 (single isomer, unassigned) [Example 12.3, 3-(1,3-dihydroxypropyl)-7-[(N-ethyl-4-fluoro-anilino)methyl]-2-methyl-thiazolo[3,2-a]pyrimidin-5-one]",1.6,183,–
"CNC(=O)c1c(C)sc2nc(Cc3cccc(C(F)(F)F)c3)cc(=O)n12 [Example 21.15, N,2-dimethyl-5-oxo-7-[[3-(trifluoromethyl)phenyl]methyl]thiazolo[3,2-a]pyrimidine-3-carboxamide]",–,112,–
"Cc1sc2nc(COc3ccc(F)cc3)cc(=O)n2c1C(C)O (stereo not drawn) [Example 2.3, 7-(4-Fluorophenoxymethyl)-3-(1-hydroxyethyl)-2-methyl-5H-[1,3]thiazolo[3,2-a]pyrimidin-5-one]",12.6,49.8,–
"CCCc1ccc(F)cc1Cc1cc(=O)n2c(C(=O)NCC)c(C)sc2n1 [Example 21.67, N-ethyl-7-(5-fluoro-2-propylbenzyl)-2-methyl-5-oxo-5H-thiazolo[3,2-a]pyrimidine-3-carboxamide]",–,75,–
